Legend:
LecA [1] = molecular target: T1, LecA (Pseudomonas aeruginosa, UniProt Q05097); assay: competitive binding assay based on fluorescence polarisation (FP)
T1 construct: made in house
Procedure: Binding of ligands to LecA was evaluated in competitive assay based on fluorescence polarisation.

LecA [2] = molecular target: T1, LecA; assay: surface plasmon resonance (SPR) direct binding to immobilised LecA
Procedure: All experiments were performed on a BIACORE X100 instrument (GE Healthcare) at 25° C. and a flow rate of 10 μL min^−1. […] LecA was dissolved in 10 mM sodium acetate pH 4.5 (100 μg mL^−1) and injected over the activated chip surface on channel 2 (contact time of 540 s) until the response of ˜4000 RU was reached. Excess free amine groups were capped with an injection of 1 M ethanolamine (contact time 540 s). Bivalent compounds were dissolved in 100% DMSO and subsequently diluted to required concentrations in a running buffer (10 mM phosphate buffer pH 7.4, 2.7 mM KCl, 137 mM NaCl, 100 μM CaCl2, 0.05% Tween 20, 5% DMSO). The bivalent analytes were subjected to single-cycle kinetics analyses (contact time of 120 s and dissociation time of 120 s) consisting of injections of the analytes at 0, 10, 50, 100, and 200 nM over the immobilised-LecA. The chip surface was regenerated by 5× injections of 100 μM 4-nitrophenyl-β-D-galactose (contact time of 120 s). KD determination was performed using BIACORE X100 evaluation software (version 2.0) by applying 1:1 binding model to fit the experimental data. • [1] H. E. Gottlieb, V. Kotlyar, A. Nudelman, J. Org. Chem. 1997, 62, 7512-7515. • [2] M. Seligman, J. Biol. Chem. 1952, 195, 239-249. • [3] S. T. Xue, W. Y. He, L. L. Ma, H. Q. Wang, B. Wang, G. H. Zheng, X. Y. Ji, T. Zhang, Y. H. Li, J. D. Jiang, et al., Molecules 2013, 18, 3789-3805. • [4] Y. Li, H. Mo, G. Lian, B. Yu, Carbohydr. Res. 2012, 363, 14-22. • [5] F. Yang, F. Xie, Y. Zhang, Y. Xia, W. Liu, F. Jiang, C. Lam, Y. Qiao, D. Xie, J. Li, et al., Bioorganic Med. Chem. Lett. 2017, 27, 2166-2170. Synthesis Schemes and Results of Biophysical Assays

LecA [3] = molecular target: T1, LecA; assay: isothermal titration microcalorimetry (ITC); format: binding; settings: Table 5, ITC, 25° C.
Procedure: Expression and purification of LecA as well as competitive binding by fluorescence polarization was performed as described by Joachim et al. (Org. Biomol. Chem. 2016). Microcalorimetry was performed using an ITC200 (GE Healthcare) at highest possible LecA concentration (typically 200-400 μM) in the cell and titration of ligand in the same buffer at 25° C.

[4] = FP IC50, Table 1, 20 μM LecA, 10 nM reporter ligand 8, TBS/Ca2+ buffer with 25% DMSO (**)
[5] = IC50, Table 3, TBS/Ca2+ buffer in presence of 25% DMSO
[6] = 100 μM LecA, 0.5 mM 35, TBS/Ca2+ buffer
[7] = 110 μM LecA, 1 mM 35, TBS/Ca2+ buffer

T1 sequence (Q05097 whole entry): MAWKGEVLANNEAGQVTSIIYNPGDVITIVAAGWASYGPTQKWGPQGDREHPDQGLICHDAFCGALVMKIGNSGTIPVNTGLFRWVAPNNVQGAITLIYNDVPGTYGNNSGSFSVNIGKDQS

Compound	IC50 (LecA [1]; [4])	Kd (LecA [2])	koff (LecA [2])	other results
O=C(NN=Cc1ccc(Oc2ccc(C=NNC(=O)c3cccc(OC4OC(CO)C(O)C(O)C4O)c3)cc2)cc1)c1cccc(OC2OC(CO)C(O)C(O)C2O)c1 (stereo not drawn) [Compound A6m]	4.1 ± 3 µM	0.0166 ± 0.002 µM	–	–
O=C(NN=Cc1ccc(Oc2ccc(C=NNC(=O)c3ccc(OC4OC(CO)C(O)C(O)C4O)cc3)cc2)cc1)c1ccc(OC2OC(CO)C(O)C(O)C2O)cc1 (stereo not drawn) [Compound A6p]	4.3 ± 2.3 µM	0.0217 ± 0.0076 µM	–	–
O=C(NN=Cc1ccc(OCOc2ccc(C=NNC(=O)c3cccc(OC4OC(CO)C(O)C(O)C4O)c3)cc2)cc1)c1cccc(OC2OC(CO)C(O)C(O)C2O)c1 (stereo not drawn) [Compound B6m]	3.1 ± 2 µM	0.0143 ± 0.006 µM	–	–
O=C(CCc1ccc(O[C@@H]2O[C@H](CO)[C@H](O)[C@H](O)[C@H]2O)cc1)Nc1ccc(OCCOc2ccc(NC(=O)CCc3ccc(O[C@@H]4O[C@H](CO)[C@H](O)[C@H](O)[C@H]4O)cc3)cc2)cc1 [Compound I30]	–	–	0.00284 ± 6e-05 s⁻¹	–
O=C(NN=Cc1ccc(OCCOc2ccc(C=NNC(=O)c3cccc(OC4OC(CO)C(O)C(O)C4O)c3)cc2)cc1)c1cccc(OC2OC(CO)C(O)C(O)C2O)c1 (stereo not drawn) [Compound C6m]	2 ± 1.9 µM	0.0149 ± 0.0119 µM	–	–
O=C(NN=Cc1ccc(OCCCCOc2ccc(C=NNC(=O)c3ccc(OC4OC(CO)C(O)C(O)C4O)cc3)cc2)cc1)c1ccc(OC2OC(CO)C(O)C(O)C2O)cc1 (stereo not drawn) [Compound E6p]	4.9 ± 1.4 µM	0.094 ± 0.0289 µM	–	–
O=C(CCc1ccc(O[C@@H]2O[C@H](CO)[C@H](O)[C@H](O)[C@H]2O)cc1)Nc1ccc(OCCCOc2ccc(NC(=O)CCc3ccc(O[C@@H]4O[C@H](CO)[C@H](O)[C@H](O)[C@H]4O)cc3)cc2)cc1 [Compound J30]	–	–	0.00345 ± 0.00013 s⁻¹	–
O=C(CCc1ccc(O[C@@H]2O[C@H](CO)[C@H](O)[C@H](O)[C@H]2O)cc1)Nc1ccc(OCCOc2ccc(NC(=O)CCc3ccc(O[C@@H]4O[C@H](CO)[C@H](O)[C@H](O)[C@H]4O)cc3)cn2)nc1 [Compound M31]	–	–	0.00141 ± 5e-05 s⁻¹	IC50 (LecA [1]; [5]): 4.1 ± 2.2 µM
O=C(CCc1ccc(O[C@@H]2O[C@H](CO)[C@H](O)[C@H](O)[C@H]2O)cc1)Nc1ccc(OCCCCOc2ccc(NC(=O)CCc3ccc(O[C@@H]4O[C@H](CO)[C@H](O)[C@H](O)[C@H]4O)cc3)cc2)cc1 [Compound K30]	–	–	0.00366 ± 0.00042 s⁻¹	–
O=C(/C=C/c1ccc(O[C@@H]2O[C@H](CO)[C@H](O)[C@H](O)[C@H]2O)cc1)Nc1ccc(Oc2ccc(NC(=O)/C=C/c3ccc(O[C@@H]4O[C@H](CO)[C@H](O)[C@H](O)[C@H]4O)cc3)cc2)cc1 [Compound G18]	–	–	0.00596 ± 0.00206 s⁻¹	–
O=C(/C=C/c1ccc(O[C@@H]2O[C@H](CO)[C@H](O)[C@H](O)[C@H]2O)cc1)Nc1ccc(OCOc2ccc(NC(=O)/C=C/c3ccc(O[C@@H]4O[C@H](CO)[C@H](O)[C@H](O)[C@H]4O)cc3)cc2)cc1 [Compound H18]	–	–	0.00379 ± 0.00089 s⁻¹	–
O=C(CCc1ccc(O[C@@H]2O[C@H](CO)[C@H](O)[C@H](O)[C@H]2O)cc1)Nc1ccc(Oc2ccc(NC(=O)CCc3ccc(O[C@@H]4O[C@H](CO)[C@H](O)[C@H](O)[C@H]4O)cc3)cc2)cc1 [Compound G30]	–	–	0.00349 ± 8e-05 s⁻¹	–
O=C(/C=C/c1ccc(O[C@@H]2O[C@H](CO)[C@H](O)[C@H](O)[C@H]2O)cc1)Nc1ccc(OCCOc2ccc(NC(=O)/C=C/c3ccc(O[C@@H]4O[C@H](CO)[C@H](O)[C@H](O)[C@H]4O)cc3)cc2)cc1 [Compound I18]	–	–	0.00249 ± 0.00028 s⁻¹	–
O=C(NN=Cc1ccc(OCCOc2ccc(C=NNC(=O)c3ccc(OC4OC(CO)C(O)C(O)C4O)cc3)cc2)cc1)c1ccc(OC2OC(CO)C(O)C(O)C2O)cc1 (stereo not drawn) [Compound C6p]	3.8 ± 1.6 µM	0.0417 ± 0.0239 µM	–	–
O=C(CCc1ccc(O[C@@H]2O[C@H](CO)[C@H](O)[C@H](O)[C@H]2O)cc1)Nc1ccc(OCCCCOc2ccc(NC(=O)CCc3ccc(O[C@@H]4O[C@H](CO)[C@H](O)[C@H](O)[C@H]4O)cc3)cn2)nc1 [Compound O31]	–	–	–	IC50 (LecA [1]; [5]): 3.2 ± 1.8 µM
O=C(NN=Cc1ccc(OCCCOc2ccc(C=NNC(=O)c3cccc(OC4OC(CO)C(O)C(O)C4O)c3)cc2)cc1)c1cccc(OC2OC(CO)C(O)C(O)C2O)c1 (stereo not drawn) [Compound D6m]	–	0.0659 ± 0.0062 µM	–	–
O=C(CCc1ccc(O[C@@H]2O[C@H](CO)[C@H](O)[C@H](O)[C@H]2O)cc1)Nc1ccc(OCCCOc2ccc(NC(=O)CCc3ccc(O[C@@H]4O[C@H](CO)[C@H](O)[C@H](O)[C@H]4O)cc3)cn2)nc1 [Compound N31]	–	–	–	IC50 (LecA [1]; [5]): 2.7 ± 1.1 µM
NNC(=O)c1ccc(O[C@@H]2OC(CO)[C@H](O)C(O)C2O)cc1 (stereo partly drawn) [reference compound]	30.3 µM	–	–	IC50 (LecA [1]; FP IC50, Table 1, 20 μM LecA, 10 nM reporter ligand 8, TBS/Ca2+ buffer with 4% DMSO (*)): 22.6 ± 8.7 µM
O=C(/C=C/c1ccc(O[C@@H]2O[C@H](CO)[C@H](O)[C@H](O)[C@H]2O)cc1)Nc1ccc(OCCCCOc2ccc(NC(=O)/C=C/c3ccc(O[C@@H]4O[C@H](CO)[C@H](O)[C@H](O)[C@H]4O)cc3)cc2)cc1 [Compound K18]	–	–	0.00388 ± 0.00043 s⁻¹	–
O=[N+]([O-])c1ccc(O[C@@H]2O[C@H](CO)[C@H](O)[C@H](O)[C@H]2O)cc1 [pNO2-Ph-β-Gal, reference compound]	–	–	–	IC50 (LecA [1]; [5]): 40.4 ± 12.9 µM
O=C(/C=C/c1ccc(O[C@@H]2O[C@H](CO)[C@H](O)[C@H](O)[C@H]2O)cc1)Nc1ccc(OCCCOc2ccc(NC(=O)/C=C/c3ccc(O[C@@H]4O[C@H](CO)[C@H](O)[C@H](O)[C@H]4O)cc3)cn2)nc1 [Compound N32]	–	–	–	IC50 (LecA [1]; [5]): 4.3 ± 2 µM
O=C(NN=Cc1ccc(OCOc2ccc(C=NNC(=O)c3ccc(OC4OC(CO)C(O)C(O)C4O)cc3)cc2)cc1)c1ccc(OC2OC(CO)C(O)C(O)C2O)cc1 (stereo not drawn) [Compound B6p]	3.7 ± 1.8 µM	0.0305 ± 0.028 µM	–	–
N.N.O=C(CCc1ccc(O[C@@H]2OC(CO)[C@H](O)C(O)C2O)cc1)Nc1ccc(CCc2ccc(NC(=O)CCc3ccc(O[C@@H]4OC(CO)[C@H](O)C(O)C4O)cc3)cc2S(=O)(=O)O)c(S(=O)(=O)O)c1 (stereo partly drawn) [Compound 35]	–	–	–	IC50 (LecA [1]; [5]): 4 ± 2.4 µM; Kd (LecA [3]; [6]): 0.081 µM; Kd (LecA [3]; [7]): 0.146 µM; N (ITC stoichiometry) (LecA [3]; [6]): 0.55; ΔH (LecA [3]; [6]): -19.2 kcal/mol; ΔS (LecA [3]; [6]): −31.8 cal/mol/deg; N (ITC stoichiometry) (LecA [3]; [7]): 0.54; ΔH (LecA [3]; [7]): -19.5 kcal/mol; ΔS (LecA [3]; [7]): −34.3 cal/mol/deg
O=C(CCc1ccc(O[C@@H]2O[C@H](CO)[C@H](O)[C@H](O)[C@H]2O)cc1)Nc1ccc(OCOc2ccc(NC(=O)CCc3ccc(O[C@@H]4O[C@H](CO)[C@H](O)[C@H](O)[C@H]4O)cc3)cc2)cc1 [Compound H30]	–	–	0.00462 ± 0.0002 s⁻¹	–
O=C(NN=Cc1ccc(OCCCOc2ccc(C=NNC(=O)c3ccc(OC4OC(CO)C(O)C(O)C4O)cc3)cc2)cc1)c1ccc(OC2OC(CO)C(O)C(O)C2O)cc1 (stereo not drawn) [Compound D6p]	3.6 ± 1.7 µM	0.05 ± 0.0194 µM	–	–
O=C(NN=Cc1ccc(OCCCCOc2ccc(C=NNC(=O)c3cccc(OC4OC(CO)C(O)C(O)C4O)c3)cc2)cc1)c1cccc(OC2OC(CO)C(O)C(O)C2O)c1 (stereo not drawn) [Compound E6m]	6.3 ± 6.4 µM	0.0257 ± 0.0192 µM	–	–
O=C(/C=C/c1ccc(O[C@@H]2O[C@H](CO)[C@H](O)[C@H](O)[C@H]2O)cc1)Nc1ccc(OCCOc2ccc(NC(=O)/C=C/c3ccc(O[C@@H]4O[C@H](CO)[C@H](O)[C@H](O)[C@H]4O)cc3)cn2)nc1 [Compound M32]	–	–	0.00165 ± 0.00012 s⁻¹	IC50 (LecA [1]; [5]): 7.5 ± 3.7 µM
O=C(NCc1cn(CCOCCOCCOCCNC(=S)Nc2ccc3c(c2)C(=O)OC32c3ccc(O)cc3Oc3cc(O)ccc32)nn1)c1ccc(C(Oc2ccc(/C=N/NC(=O)c3ccc(O[C@@H]4OC(CO)[C@H](O)C(O)C4O)cc3)cc2)Oc2ccc(/C=N/NC(=O)c3ccc(O[C@@H]4OC(CO)[C@H](O)C(O)C4O)cc3)cc2)cc1 (stereo partly drawn) [Compound 13]	–	0.0372 ± 0.0029 µM	0.00593 ± 0.00051 s⁻¹	kon (LecA [2]; Table 2, SPR, three independent experiments): 160 ± 19 ×10^3/Ms
O=C(/C=C/c1ccc(O[C@@H]2O[C@H](CO)[C@H](O)[C@H](O)[C@H]2O)cc1)Nc1ccc(OCCCOc2ccc(NC(=O)/C=C/c3ccc(O[C@@H]4O[C@H](CO)[C@H](O)[C@H](O)[C@H]4O)cc3)cc2)cc1 [Compound J18]	–	–	0.00251 ± 0.00022 s⁻¹	–

— patent US12545699B2, “Bivalent LECA inhibitors targeting biofilm formation of Pseudomonas aeruginosa” (HELMHOLTZ-ZENTRUM FÜR INFEKTIONSFORSCHUNG GMBH, priority 2019, dated 2026)
